From publication PMC6480602, “Design, Synthesis, and Evaluation of Monoamine Oxidase A Inhibitors–Indocyanine Dyes Conjugates as Targeted Antitumor Agents” (Molecules, 2019)
“Also recorded” adds a separate entry of the source. Counter-ions that a name gives are not always drawn. Like-named read-outs stand apart in the source and are kept apart here.

How the values were obtained:
PC-3 cells = assay: MTT cytotoxicity assay against PC-3 cells; type: cell-based, human; settings: for IC50: 96 h exposure, read-out: IC50 (μM), anti-proliferative activity against PC-3 cells
Description: The antitumor activities of G1–G13 were evaluated by MTT (3-(4,5-dimethylthiazol-2-yl)-2,5-diphenyltetrazolium bromide) assay using a human PC-3 cell line.
The in vitro cytotoxicity activity of G1–G13 were measured by the colorimetric MTT assay. Briefly, PC-3 cells were incubated in 96-well plates at a density of 3 × 10^3 cells/well for 24 h. Then, the cells were exposed to various concentrations of tested compounds, INH and DOX, respectively for 96 h. After incubation, 10 μL of MTT (5 mg/mL) solution was added and the plates were incubated for 4 h at 37 °C. Next, the medium was replaced with 200 μL of DMSO to dissolve the formed formazan crystals. The absorbance was measured at 570 nm on a microplate reader (Synergy-HT, BioTek Instruments, Winooski, VT, USA).

[1] = biological target: T1, Monoamine oxidase A (MAOA) (Homo sapiens, UniProt P21397); assay: MAOA inhibition activity assay in LNCaP cells (Cell MAOA Assay Kit); type: cell-based
T1 construct: the prostate cancer cell line LNCaP expressed a relatively high level of MAOA; endogenous in cells; host or cells: LNCaP cells (Cell Bank of the Chinese Academy of Sciences, Shanghai)
T1 sequence (P21397 1-527): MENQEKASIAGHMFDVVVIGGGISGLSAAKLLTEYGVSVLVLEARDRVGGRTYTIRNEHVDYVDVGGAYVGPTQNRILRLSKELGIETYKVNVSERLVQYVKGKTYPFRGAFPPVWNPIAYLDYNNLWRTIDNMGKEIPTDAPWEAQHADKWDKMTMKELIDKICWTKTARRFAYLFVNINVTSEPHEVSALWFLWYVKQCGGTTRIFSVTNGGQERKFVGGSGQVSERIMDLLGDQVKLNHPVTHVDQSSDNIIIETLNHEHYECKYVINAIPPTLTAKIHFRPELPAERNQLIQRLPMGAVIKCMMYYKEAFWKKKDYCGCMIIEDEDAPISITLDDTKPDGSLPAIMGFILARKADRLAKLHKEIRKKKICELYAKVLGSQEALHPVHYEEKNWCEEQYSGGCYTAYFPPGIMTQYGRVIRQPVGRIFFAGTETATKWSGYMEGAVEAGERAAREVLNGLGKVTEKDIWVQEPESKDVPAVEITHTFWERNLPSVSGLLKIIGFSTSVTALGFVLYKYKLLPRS
Description: Because the prostate cancer cell line LNCaP expressed a relatively high level of MAOA [17, 40], we tested the inhibitory effect of compounds G10, G11, and G12 on MAOA using LNCaP cells (Table 2).
In a 10-mm dish, 6 × 10^5 LNCaP cells were plated in medium supplemented with 10% FBS. […] The reaction products were extracted and MAOA activities were measured as described in the introduction for the Cell MAOA Assay Kit (Shanghai Chengong Biotechnology, CHN, Lot No: 1-201838-10). The MAOA activity was assessed based on the substrate p-tyramine level after treatment with MAOB inhibitor pargyline.

[2] = LNCaP cells, 48 h treatment, substrate p-tyramine, with MAOB inhibitor pargyline, read-out: IC50 (nM), MAOA inhibitory activity in LNCaP cells

Compound: 2-(7-(5-methoxyl-1-(5-carboxypentyl)-1,3-dihydro-5-ethyl-3-methyl-2H-indol-2-ylidene)-1,3,5-heptatrien-1-yl)-5-methoxyl-1-(6-(2-isonicotinoylhydrazinyl)-6-oxohexyl)-5-ethyl-3-methyl-3H-indol-1-ium bromide [Compound G6]
- IC50 (PC-3 cells): 37.1 µM

Compound: COc1ccc2c(c1)C(C)(C)C(=CC=C1CCCC(C=CC3=[N+](CCCCCC(=O)NNC(=O)c4ccncc4)c4ccc(OC)cc4C3(C)C)=C1Cl)N2CCCCCC(=O)O [Compound G1, 2-(2-(3-(2-(5-Methoxyl-1-(5-carboxypentyl)-3,3-dimethyl-indol-2-ylidene)ethylidene)-2-chloro-1-cyclohexen-1-yl)vinyl)-5-methoxyl-1-(6-(2-isonicotinoylhydrazinyl)-6-oxohexyl)-3,3-dimethyl-3H-indol-1-ium bromide]
- IC50 (PC-3 cells; Homo sapiens): 18.4 µM

Compound: CC1(C)C(=CC=C2CCCC(C=CC3=[N+](CCCCCC(=O)NNC(=O)c4ccncc4)c4ccc(Br)cc4C3(C)C)=C2Cl)N(CCCCCC(=O)O)c2ccc(Br)cc21 [Compound G2, 2-(2-(3-(2-(5-Bromo-1-(5-carboxypentyl)-3,3-dimethyl-indol-2-ylidene)ethylidene)-2-chloro-1-cyclohexen-1-yl)vinyl)-5-bromo-1-(6-(2-isonicotinoylhydrazinyl)-6-oxohexyl)-3,3-dimethyl-3H-indol-1-ium bromide]
- IC50 (PC-3 cells; Homo sapiens): 75 µM

Compound: CCC1(C)C(/C=C/C2=C(Cl)C(=C/C=C3/N(CCCCCC(=O)O)c4ccc(OC)cc4C3(C)CC)/CCC2)=[N+](CCCCCC(=O)NNC(=O)c2ccncc2)c2ccc(OC)cc21 (centres unmarked) [Compound G3, 2-(2-(3-(2-(5-Methoxyl-1-(5-carboxypentyl)-5-ethyl-3-methyl-indol-2-ylidene)ethylidene)-2-chloro-1-cyclohexen-1-yl)vinyl)-5-methoxyl-1-(6-(2-isonicotinoylhydrazinyl)-6-oxohexyl)-5-ethyl-3-methyl-3H-indol-1-ium bromide]
- IC50 (PC-3 cells; Homo sapiens): 13.3 µM

Compound: Cc1ccc2c(c1)C(C)(C)C(=CC=CC=CC=CC1=[N+](CCCCCC(=O)NNC(=O)c3ccncc3)c3ccc(C)cc3C1(C)C)N2CCCCCC(=O)O [Compound G4, 2-(7-(1-(5-carboxypentyl)-1,3-dihydro-3,3,5-trimethyl-2H-indol-2-ylidene)-1,3,5-heptatrien-1-yl)-1-(6-(2-isonicotinoylhydrazinyl)-6-oxohexyl)-3,3,5-trimethyl-3H-indol-1-ium bromide]
- IC50 (PC-3 cells; Homo sapiens): 46.7 µM

Compound: COc1ccc2c(c1)C(C)(C)C(=CC=CC=CC=CC1=[N+](CCCCCC(=O)NNC(=O)c3ccncc3)c3ccc(OC)cc3C1(C)C)N2CCCCCC(=O)O [Compound G5, 2-(7-(5-methoxyl-1-(5-carboxypentyl)-1,3-dihydro-3,3-dimethyl-2H-indol-2-ylidene)-1,3,5-heptatrien-1-yl)-5-methoxyl-1-(6-(2-isonicotinoylhydrazinyl)-6-oxohexyl)-3,3-dimethyl-3H-indol-1-ium bromide]
- IC50 (PC-3 cells; Homo sapiens): 5.06 µM

Compound: COc1ccc2c(c1)C(C)(C)\C(=C/C=C/C=C/C=C/C1=[N+](CCCCCC(=O)NNC(=O)c3ccncc3)c3ccc(C)cc3C1(C)C)N2CCCCS(=O)(=O)[O-] [Compound G7, 3H-Indolium,2-(7-(5-methoxy-1-(4-sulfonatobutyl)-3,3-dimethyl-2H-indolin-2-ylidene)-1,3,5-heptatrien-1-yl)-1-(6-(2-isonicotinoylhydrazinyl)-6-oxohexyl)-1,3-dihydro-3,3,5-trimethyl-, inner salt]
- IC50 (PC-3 cells; Homo sapiens): 28.6 µM

Compound: COc1ccc2c(c1)C(C)(C)C(/C=C/C=C/C=C/C=C1/N(CCCCS(=O)(=O)[O-])c3ccc(OC)cc3C1(C)C)=[N+]2CCCCCC(=O)NNC(=O)c1ccncc1 [Compound G8, 3H-Indolium,2-(7-(5-methoxy-1-(4-sulfonatobutyl)-3,3-dimethyl-2H-indolin-2-ylidene)-1,3,5-heptatrien-1-yl)-5-methoxy-1-(6-(2-isonicotinoylhydrazinyl)-6-oxohexyl)-1,3-dihydro-3,3-dimethyl-, inner salt]
- IC50 (PC-3 cells; Homo sapiens): 102 µM

Compound: COc1ccc2c(c1)C(C)(C)\C(=C/C=C/C=C/C=C/C1=[N+](CCCCCC(=O)NNC(=O)c3ccncc3)c3ccccc3C1(C)C)N2CCCCS(=O)(=O)[O-] [Compound G9, 3H-Indolium,2-(7-(5-methoxy-1-(4-sulfonatobutyl)-3,3-dimethyl-2H-indolin-2-ylidene)-1,3,5-heptatrien-1-yl)-1-(6-(2-isonicotinoylhydrazinyl)-6-oxohexyl)-1,3-dihydro-3,3-dimethyl-, inner salt]
- IC50 (PC-3 cells; Homo sapiens): 90.5 µM

Compound: CCCCN1/C(=C/C=C/C=C/C=C/C2=[N+](CCCC(=O)NNC(=O)c3ccncc3)c3ccc(C)cc3C2(C)C)C(C)(C)c2cc(OC)ccc21 [Compound G10, 2-(7-(5-Methoxy-1-butyl-3,3,5-trimethyl-2H-indolin-2-ylidene)-1,3,5-heptatrien-1-yl)-1-(6-(2-isonicotinoylhydrazinyl)-4-oxobutyl)-1,3-dihydro-3,3-dimethyl-3H-indolium bromide]
- IC50 (PC-3 cells; Homo sapiens): 0.85 µM
- MAOA inhibitory activity (in words) ([1]; LNCaP cells): moderate MAOA inhibitory activities
- IC50 [1, 2]: 221 nM

Compound: CCCCN1/C(=C/C=C/C=C/C=C/C2=[N+](CCCCCC(=O)NNC(=O)c3ccncc3)c3ccc(C)cc3C2(C)C)C(C)(C)c2cc(OC)ccc21 [Compound G11]
- IC50 (PC-3 cells; Homo sapiens): 0.4 µM
- MAOA inhibitory activity (in words) ([1]; LNCaP cells): moderate MAOA inhibitory activities
- IC50 [1, 2]: 469 nM

Compound: CCCCN1/C(=C/C=C/C=C/C=C/C2=[N+](CCCCCC(=O)NNC(=O)c3ccncc3)c3ccc(Br)cc3C2(C)C)C(C)(C)c2cc(OC)ccc21 [Compound G12]
- IC50 (PC-3 cells; Homo sapiens): 1.55 µM
- MAOA inhibitory activity (in words) ([1]; LNCaP cells): moderate MAOA inhibitory activities
- IC50 [1, 2]: 661 nM

Compound: CC1(C)C(/C=C/C=C/C=C/C=C2/N(CCCCCC(=O)NNC(=O)c3ccncc3)c3ccc4ccccc4c3C2(C)C)=[N+](CCCCS(=O)(=O)[O-])c2ccc3ccccc3c21 [Compound G13, 1H-Benz[e]indolium,2-(7-(3,3-dimethyl-1-(4-sulfonatobutyl)benz(e)indolin-2-ylidene)hepta-1,3,5-trien-1-yl)-1-(6-(2-isonicotinoylhydrazinyl)-6-oxohexyl)-1,3-dihydro-3,3-dimethyl-, inner salt]
- IC50 (PC-3 cells; Homo sapiens): 10.5 µM

Compound: COc1cccc2c1C(=O)c1c(O)c3c(c(O)c1C2=O)C[C@@](O)(C(=O)CO)C[C@@H]3O[C@H]1C[C@H](N)[C@H](O)[C@H](C)O1 [DOX, doxorubicin, reference compound]
- IC50 (PC-3 cells; Homo sapiens): 0.21 µM

Compound: NNC(=O)c1ccncc1 [INH, isoniazid, reference compound]
- cytotoxicity / antitumor activity against PC-3 cells (in words) (PC-3 cells): negligible cytotoxicity; also recorded: negligible in vitro antitumor activity
- IC50 (PC-3 cells; Homo sapiens): > 200 µM
- IC50 [1]: > 1000 nM
